Patent publication US20220098197A1, “SALTS OF HETEROCYCLIC COMPOUND AND USE THEREOF” (priority 2019, published 2022)
Values after ≈ are worked out from the molar mass of the structure shown. Values joined by “and” are separate entries in the source; they are usually repeats but may differ in a detail not shown here. Identical values can stand only once. Like-named read-outs stand apart in the source and are kept apart here.

How the values were obtained:
[1] = Dissolution test of capsules (Chinese Pharmacopoeia 2015, General Method 0931, 2nd Method); format: physicochemical; conditions: for Dissolution rate, Mean (%), 5 min / Dissolution rate, Mean (%), 10 min / Dissolution rate, Mean (%), 15 min / Dissolution rate, Mean (%), 20 min / Dissolution rate, Mean (%), 30 min / Dissolution rate, Mean (%), 45 min: mean of 6 capsules; for Dissolution rate, Mean (%), 5 min / Dissolution rate, Mean (%), 10 min / Dissolution rate, Mean (%), 15 min / Dissolution rate, Mean (%), 20 min / Dissolution rate, Mean (%), 30 min / Dissolution rate, Mean (%), 45 min / Dissolution rate, 5 min / Dissolution rate, 10 min / Dissolution rate, 15 min / Dissolution rate, 20 min / Dissolution rate, 30 min / Dissolution rate, 45 min: purified water, 50 rpm; for Dissolution rate, 5 min / Dissolution rate, 10 min / Dissolution rate, 15 min / Dissolution rate, 20 min / Dissolution rate, 30 min / Dissolution rate, 45 min: single capsules 1-6, hydrate
Protocol: The hydrates obtained hereinabove and the compound of formula A were tested for dissolution rate. The test method was as follows.
Step 1: Pretreating Raw Materials
The samples were passed through a 100 mesh sieve.
Step 2: Blending Raw Materials with Auxiliary Materials
The raw materials and lactose were weighed according to the prescription, mixed in equal increment, sieved and mixed.
The capsules were filled via a capsule filling plate and sealed. The difference of the filling amount was controlled to ±5%. The appearance was inspected to ensure that the sealing was correct and there was no split or deformation.
Test method: dissolution test method (Chinese Pharmacopoeia, edited in 2015, Chapter 4, General Method 0931, the 2nd Method)
Dissolution medium: aqueous solution
Specific test method: The sample was tested following the dissolution test method (Chinese Pharmacopoeia, edited in 2015, Chapter 4, General Method 0931, the 2nd Method). 900 ml aqueous solution was used as the dissolution medium. The speed was 50 rpm. The test was performed in accordance with the method. […] After filtration, the filtrate was precisely measured and quantitatively diluted with the dissolution medium to prepare a solution containing about 10 μg of sample per 1 ml. The absorbance was measured by at 231 nm by UV-Vis spectrophotometry (Chinese Pharmacopoeia, edited in 2015, Chapter 4, General Method 0931, the 2nd Method). An appropriate amount of the control sample was taken, weighed accurately, dissolved in dissolution medium and diluted quantitatively to prepare a solution containing about 10 μg of the sample per 1 ml, and then measured in the same way. The amount of dissolution per capsule was calculated.

[2] = Solubility test in media with different pH; format: physicochemical; conditions: for solubility: thermodynamic from solid, room temperature of 25° C.
Protocol: The hydrates obtained as above and the compound of formula A were tested for solubility in solutions with different pH. The test method was as follows.
1.1. Preparation of the Media with Different pH
pH1.0 medium: 9.0 mL of hydrochloric acid was diluted to 1000 mL with water and shaken well to obtain the medium.
pH4.5 medium: 6.80 g of potassium dihydrogen phosphate (KH2PO4) was dissolved in water and diluted to 1000 mL, adjusted to pH4.5 with phosphoric acid or sodium hydroxide, and shaken well to obtain the medium.
pH6.8 medium: 55.38 g of disodium hydrogen phosphate (Na2HPO4.12H2O) and 4.77 g of citric acid (C6H8O7.H2O) were dissolved in water and diluted to 1000 mL, adjusted to pH6.8 with phosphoric acid or sodium hydroxide, and shaken well to obtain the medium.
Pure water medium: purified water.
Test method: To a certain amount of test samples, the media with different pH were added gradually, respectively. The mixture was shaken continuously until it reached saturation. The weighing amount of the test sample and the amount of solvent were recorded and the concentration when the sample was dissolved was calculated.

[3] = Stability test (influencing factors: light, high temperature, high humidity); format: physicochemical; conditions: for stability under high temperature and high humidity conditions (in words): 60° C., 92.5% RH
Protocol: Test process: An appropriate amount of each test sample was placed on a clean watch glass without a lid and then placed under the conditions of light 4500 lx±500 lx, high temperature of 60° C., high humidity of 92.5% RH for 5 days and 10 days, respectively. The properties and related substances were determined and the results were compared with the results at day 0 to observe the stability.
The test method for related substances was as follows.
Preparation of test sample solution: About 10 mg of each test sample was placed in a 10 ml volumetric flask, and 50% acetonitrile aqueous solution was added to dissolve sample, and diluted to the mark, shaken well, and filtered to obtain the test sample solution. A precise amount of 10 μl of the test sample solution was taken and injected according to the above chromatographic method, and the maximum single impurity and total impurity were calculated according to the area normalization method.

neutrophils [4] = assay: PGD2-induced neutrophils migration, Boyden chamber assay (Example 1); format: cell-based, mice; conditions: pretreatment CT-NA 1 and 10 μM (p<0.01) or OC459; PGD2 1 μM; 4 hrs
Protocol: The mice were intragastrically administered glycogen (1.5%) at the dose range of 20 ml/kg of body weight. 4 hrs later, the mice were euthanized to isolate neutrophils from the peritoneal lavage. The effect of CT-NA on neutrophils migration was detected by using the Boyden chamber assay kit (3 μm pore size). PGD2 was used as a chemoattractant because the activated PGD2/CRTH2 receptors promoted the migration of neutrophils. Initially, the isolated neutrophils (4×10^5) were diluted in 100 μL HBSS and allowed to migrate toward PGD2 (0.1, 1 and 10 μM) for 4 hrs to find out the suitable PGD2 concentration. Then, the isolated neutrophils (4×10^5) were pretreated with CT-NA (1 and 10 μM), and their migration to PGD2 (1 μM) was evaluated by counting the migrated neutrophils. Moreover, another potent CRTH2 inhibitor OC459 was used to countercheck the outcomes of CT-NA.

neutrophils [5] = assay: PGD2-induced neutrophils migration in vitro, Boyden chamber (Example 2); format: cell-based, mice; conditions: pretreatment CT-NA 1 μM or 10 μM, OC459 10 μM; 4 hrs; P<0.01
Protocol: The method for isolating neutrophils and testing effect of CT-NA on neutrophils migration was briefly described as follows. 1.5% glycogen was injected intragastrically into mice at a dose of 20 ml/kg body weight. 4 hrs later, the mice were euthanized to isolate neutrophils from the peritoneal lavage. Effect of CT-NA on the migration of neutrophils was detected using the Boyden chamber assay kit (3 um pore size, Billerica, Mass.). PGD2 was used as a chemoattractant because the activated PGD2/CRTH2 receptors promoted the neutrophils migration. Firstly, the isolated neutrophils were inoculated at 4×10^5 cells/ml into the upper side of well of the Boyden chamber, and the lower chamber contained different concentrations of PGD2 (0.1, 1 and 10 μM), and the neutrophils were allowed to migrate towards PGD2 for 4 hrs at 37° C. in order to find out the suitable PGD2 concentration. After evaluation of the suitable PGD2 concentration, the migration of neutrophils pretreated with CT-NA (1 and 10 μM) and OC459 (10 μM), another effective CRTH2 inhibitor, toward PGD2 (1 μM) was assessed for 4 hrs.

[6] = high temperature 60° C., Day 10
[7] = light condition 4500 lx±500 lx, Day 5
[8] = light condition 4500 lx±500 lx, Day 10

Row | Structure (SMILES) | stability under high temperature and high humidity conditions (in words) ([3]; 5 and 10 days) | maximum single impurity % ([3]; Day 0) | property ([3]; Day 0) | total impurity % ([3]; Day 0) | maximum single impurity % ([3]; high humidity 92.5% RH, Day 5) | property ([3]; high humidity 92.5% RH, Day 5) | total impurity % ([3]; high humidity 92.5% RH, Day 5) | maximum single impurity % ([3]; high humidity 92.5% RH, Day 10) | property ([3]; high humidity 92.5% RH, Day 10) | total impurity % ([3]; high humidity 92.5% RH, Day 10) | maximum single impurity % ([3]; high temperature 60° C., Day 5) | property ([3]; high temperature 60° C., Day 5) | total impurity % ([3]; high temperature 60° C., Day 5) | maximum single impurity % [3, 6] | property [3, 6] | total impurity % [3, 6] | maximum single impurity % [3, 7] | property [3, 7] | total impurity % [3, 7] | maximum single impurity % [3, 8] | further results
1 | CN([C@@H]1CCc2c(CC(=O)O)c3cccnc3n2C1)S(=O)(=O)c1ccc(F)cc1 (racemic) [Compound A] | relatively stable | 0.08% | white powder | 0.32% | 0.08% | white powder | 0.31% | 0.07% | white powder | 0.26% | 0.07% | white powder | 0.24% | 0.08% | white powder | 0.25% | 4.66% | light yellow powder | 5.28% | 15.02% | dissolution rate (in words) ([1]; same method, aqueous dissolution medium): basically zero; water solubility at different pH (comparison in words) ([2]; pH 1.0, 4.5, 6.8 and purified water): poor water solubility; solubility ([2]; pH 1.0 medium (dilute hydrochloric acid), pH 1, simulated gastric fluid, pH1.0 medium, read-out: Solubility, pH = 1.0): 1.25 µg/mL (≈ 2.99 µM); solubility ([2]; pH 4.5 medium (potassium dihydrogen phosphate solution), pH 4.5, aqueous buffer, pH4.5 medium, read-out: Solubility, pH = 4.5): 1.67 µg/mL (≈ 4 µM); solubility ([2]; pH 6.8, aqueous buffer, pH6.8 medium, read-out: Solubility, pH = 6.8): 2 µg/mL (≈ 4.79 µM); solubility ([2]; purified water, read-out: Solubility, purified water): 2 µg/mL (≈ 4.79 µM); solubility in water (in words) ([2]; water): insoluble in water; stability under light condition (in words) ([3]; light 4500 lx±500 lx, 5 and 10 days): degrades significantly; property [3, 8]: light yellow powder; total impurity % [3, 8]: 15.25%
2 | CN([C@@H]1CCc2c(CC(=O)[O-])c3cccnc3n2C1)S(=O)(=O)c1ccc(F)cc1.[Li+] [Lithium salt hydrate] | relatively stable | 0.59% | white powder | 0.87% | 0.55% | white powder | 0.72% | 0.56% | white powder | 0.76% | 0.56% | white powder | 0.79% | 0.56% | white powder | 0.78% | 0.61% | light yellow powder | 0.93% | 0.78% | Dissolution rate, Mean (%), 5 min [1]: 34.6%; Dissolution rate, Mean (%), 10 min [1]: 67.4%; Dissolution rate, Mean (%), 15 min [1]: 79.8%; Dissolution rate, Mean (%), 20 min [1]: 85.3%; Dissolution rate, Mean (%), 30 min [1]: 85.2%; Dissolution rate, Mean (%), 45 min [1]: 85.7%; Dissolution rate, 5 min [1]: 36.5% and 42.6% and 34.7% and 34.4% and 35.6% and 23.9%; Dissolution rate, 10 min [1]: 78.7% and 75.4% and 74.4% and 60.4% and 74.8% and 40.4%; Dissolution rate, 15 min [1]: 83.6% and 82.7% and 83.4% and 81.4% and 81.3% and 66.1%; Dissolution rate, 20 min [1]: 84.3% and 87% and 85.9% and 84.9% and 85.5% and 84.4%; Dissolution rate, 30 min [1]: 85.9% and 85.2% and 85.8% and 84.6% and 84.4% and 85.3%; Dissolution rate, 45 min [1]: 85.5% and 85.6% and 88.3% and 84.2% and 85.3%; property [3, 8]: light yellow powder; total impurity % [3, 8]: 1.21%
3 | Cc1c(Cc2ccc3ccccc3n2)c2cc(F)ccc2n1CC(=O)O [OC459, reference compound] | – | – | – | – | – | – | – | – | – | – | – | – | – | – | – | – | – | – | – | – | PGD2-induced neutrophils migration (neutrophils [4]): inhibited; neutrophils migration induced by 1 μM PGD2 (neutrophils [5]): significantly reduced
4 | CN([C@@H]1CCc2c(CC(=O)[O-])c3cccnc3n2C1)S(=O)(=O)c1ccc(F)cc1.[K+] [Potassium salt hydrate] | relatively stable | 0.34% | white powder | 0.49% | 0.34% | Molten solid | 0.45% | 0.31% | colorless liquid | 0.48% | 0.34% | white powder | 0.45% | 0.33% | white powder | 0.45% | 0.33% | light yellow powder | 0.72% | 0.33% | Dissolution rate, Mean (%), 5 min [1]: 31.6%; Dissolution rate, Mean (%), 10 min [1]: 74.1%; Dissolution rate, Mean (%), 15 min [1]: 83.0%; Dissolution rate, Mean (%), 20 min [1]: 85.6%; Dissolution rate, Mean (%), 30 min [1]: 87.0%; Dissolution rate, Mean (%), 45 min [1]: 86.9%; Dissolution rate, 5 min [1]: 30.7% and 28.9% and 24.1% and 34.9% and 41.7% and 29.6%; Dissolution rate, 10 min [1]: 80.4% and 53.3% and 81.5% and 72.3% and 77.6% and 79.2%; Dissolution rate, 15 min [1]: 83.7% and 80.8% and 87.4% and 84.4% and 79.5% and 82.1%; Dissolution rate, 20 min [1]: 86.4% and 83.1% and 89.2% and 87.8% and 83.0% and 84.1%; Dissolution rate, 30 min [1]: 86.9% and 86.7% and 90.2% and 87.4% and 85.0% and 85.6%; Dissolution rate, 45 min [1]: 85.6% and 86.7% and 91.3% and 87.0% and 85.8% and 84.9%; property [3, 8]: light yellow powder; total impurity % [3, 8]: 0.88%
